# How the values were obtained:
# CD46 expression [1] = test: CD46 expression by RNA-sequencing in paired tumor biopsies before and after therapy; details: paired biopsies; for CD46 expression, Post-Treatment Biopsy / CD46 expression, Pre-Treatment Biopsy: RNA-seq log2-transformed counts;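 on all read-outs here: FFPE human tumor biopsies, exome-capture RNA-seq, reads aligned to GRCh37, counts normalized for GC content, length and depth, summed per gene, log2-transformed, samples paired before versus after therapy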
# CD46 expression [2] = test: CD46 expression by RNA-sequencing in unpaired pre-treatment and post-treatment tumor biopsies; type: in vivo, human; details: for CD46 expression Post: post-treatment biopsies
# [3] = Glioblastoma, Post minus Pre, unpaired biopsies, log2-transformed counts
# [4] = Glioblastoma, post- vs pre-treatment unpaired biopsies
# [5] = Glioblastoma, unpaired, RNA-seq log2-transformed normalized counts
# [6] = Breast Cancer, Post minus Pre, unpaired biopsies, log2-transformed counts
# [7] = Breast Cancer, post- vs pre-treatment unpaired biopsies
# [8] = Breast Cancer, unpaired, RNA-seq log2-transformed normalized counts
# [9] = Non-Small Cell Lung Cancer, Post minus Pre, unpaired biopsies, log2-transformed counts
# [10] = Non-Small Cell Lung Cancer, post- vs pre-treatment unpaired biopsies
# [11] = Non-Small Cell Lung Cancer, unpaired, RNA-seq log2-transformed normalized counts
# [12] = Colorectal Cancer, Post minus Pre, unpaired biopsies, log2-transformed counts
# [13] = Colorectal Cancer, post- vs pre-treatment unpaired biopsies
# [14] = Colorectal Cancer, unpaired, RNA-seq log2-transformed normalized counts
# [15] = Clear Cell Renal Cell Carcinoma, Post minus Pre, unpaired biopsies, log2-transformed counts
# [16] = Clear Cell Renal Cell Carcinoma, post- vs pre-treatment unpaired biopsies
# [17] = Clear Cell Renal Cell Carcinoma, unpaired, RNA-seq log2-transformed normalized counts
# [18] = Melanoma, Post minus Pre, unpaired biopsies, log2-transformed counts
# [19] = Melanoma, post- vs pre-treatment unpaired biopsies
# [20] = Melanoma, unpaired, RNA-seq log2-transformed normalized counts
compound,measurement,setting,value
Cn1nnc2c(C(N)=O)ncn2c1=O [temozolomide],CD46 expression diff (post minus pre),CD46 expression [1]; Glioblastoma,0.04
same,Percent Change in CD46 expression,CD46 expression [1]; Glioblastoma,0.8%
same,"CD46 expression, Post-Treatment Biopsy",CD46 expression [1]; Glioblastoma,4.80
same,CD46 expression diff,"CD46 expression [2]; Endocrine Tumor, Post minus Pre, unpaired biopsies, log2-transformed counts",−0.04
same,CD46 expression Percentage change,"CD46 expression [2]; Endocrine Tumor, post- vs pre-treatment unpaired biopsies",−0.8%
same,CD46 expression Post,"CD46 expression [2]; Endocrine Tumor, unpaired, RNA-seq log2-transformed normalized counts",5.52
same,CD46 expression diff,CD46 expression [2]; [3],0.08
same,CD46 expression Percentage change,CD46 expression [2]; [4],1.6%
same,CD46 expression Post,CD46 expression [2]; [5],4.85
atezolizumab,CD46 expression diff (post minus pre),CD46 expression [1]; Breast Cancer,−0.14
same,Percent Change in CD46 expression,CD46 expression [1]; Breast Cancer,−2.4%
same,"CD46 expression, Post-Treatment Biopsy",CD46 expression [1]; Breast Cancer,5.99
same,"CD46 expression, Pre-Treatment Biopsy",CD46 expression [1]; Breast Cancer,6.14
same,CD46 expression diff,CD46 expression [2]; [6],0.07
same,CD46 expression Percentage change,CD46 expression [2]; [7],1.3%
same,CD46 expression Post,CD46 expression [2]; [8],6.00
same,CD46 expression diff,CD46 expression [2]; [9],0.00
same,CD46 expression Percentage change,CD46 expression [2]; [10],−0.1%
same,CD46 expression Post,CD46 expression [2]; [11],6.04
bevacizumab,CD46 expression diff (post minus pre),CD46 expression [1]; Colorectal Cancer,0.08
same,Percent Change in CD46 expression,CD46 expression [1]; Colorectal Cancer,1.3%
same,"CD46 expression, Post-Treatment Biopsy",CD46 expression [1]; Colorectal Cancer,6.33
same,"CD46 expression, Pre-Treatment Biopsy",CD46 expression [1]; Colorectal Cancer,6.25
same,CD46 expression diff (post minus pre),CD46 expression [1]; Glioblastoma,0.06
same,Percent Change in CD46 expression,CD46 expression [1]; Glioblastoma,1.3%
same,"CD46 expression, Post-Treatment Biopsy",CD46 expression [1]; Glioblastoma,4.64
same,"CD46 expression, Pre-Treatment Biopsy",CD46 expression [1]; Glioblastoma,4.58
same,CD46 expression diff (post minus pre),CD46 expression [1]; Ovarian Cancer,−0.11
same,Percent Change in CD46 expression,CD46 expression [1]; Ovarian Cancer,−1.9%
same,"CD46 expression, Post-Treatment Biopsy",CD46 expression [1]; Ovarian Cancer,5.54
same,"CD46 expression, Pre-Treatment Biopsy",CD46 expression [1]; Ovarian Cancer,5.65
same,CD46 expression diff,CD46 expression [2]; [6],0.33
same,CD46 expression Percentage change,CD46 expression [2]; [7],5.4%
same,CD46 expression Post,CD46 expression [2]; [8],6.34
same,CD46 expression diff,CD46 expression [2]; [12],0.11
same,CD46 expression Percentage change,CD46 expression [2]; [13],1.7%
same,CD46 expression Post,CD46 expression [2]; [14],6.53
same,CD46 expression diff,"CD46 expression [2]; Endometrial Cancer, post minus pre, unpaired biopsies",−0.26
same,CD46 expression Percentage change,"CD46 expression [2]; Endometrial Cancer, post vs pre, unpaired biopsies",−4.4%
same,CD46 expression Post,"CD46 expression [2]; Endometrial Cancer, log2-transformed RNA-seq counts",5.56
same,CD46 expression Pre,"CD46 expression [2]; Endometrial Cancer, pre-treatment biopsies, log2-transformed RNA-seq counts",5.81
same,CD46 expression diff,CD46 expression [2]; [3],−0.02
same,CD46 expression Percentage change,CD46 expression [2]; [4],−0.4%
same,CD46 expression Post,CD46 expression [2]; [5],4.79
same,CD46 expression diff,CD46 expression [2]; [9],−0.11
same,CD46 expression Percentage change,CD46 expression [2]; [10],−1.8%
same,CD46 expression Post,CD46 expression [2]; [11],6.25
same,CD46 expression diff,"CD46 expression [2]; Ovarian Cancer, Post minus Pre, unpaired biopsies, log2-transformed counts",0.03
same,CD46 expression Percentage change,"CD46 expression [2]; Ovarian Cancer, post- vs pre-treatment unpaired biopsies",0.5%
same,CD46 expression Post,"CD46 expression [2]; Ovarian Cancer, unpaired, RNA-seq log2-transformed normalized counts",5.75
durvalumab,CD46 expression diff (post minus pre),CD46 expression [1]; Non-Small Cell Lung Cancer,0.00
same,Percent Change in CD46 expression,CD46 expression [1]; Non-Small Cell Lung Cancer,0.0%
same,"CD46 expression, Post-Treatment Biopsy",CD46 expression [1]; Non-Small Cell Lung Cancer,5.95
same,"CD46 expression, Pre-Treatment Biopsy",CD46 expression [1]; Non-Small Cell Lung Cancer,5.95
same,CD46 expression diff,CD46 expression [2]; [9],−0.03
same,CD46 expression Percentage change,CD46 expression [2]; [10],−0.5%
same,CD46 expression Post,CD46 expression [2]; [11],6.04
ipilimumab,CD46 expression diff (post minus pre),CD46 expression [1]; Melanoma,−0.06
same,Percent Change in CD46 expression,CD46 expression [1]; Melanoma,−1.1%
same,"CD46 expression, Post-Treatment Biopsy",CD46 expression [1]; Melanoma,5.26
same,"CD46 expression, Pre-Treatment Biopsy",CD46 expression [1]; Melanoma,5.31
same,CD46 expression diff,CD46 expression [2]; [15],−0.08
same,CD46 expression Percentage change,CD46 expression [2]; [16],−1.4%
same,CD46 expression Post,CD46 expression [2]; [17],5.48
same,CD46 expression diff,CD46 expression [2]; [18],−0.06
same,CD46 expression Percentage change,CD46 expression [2]; [19],−1.1%
same,CD46 expression Post,CD46 expression [2]; [20],5.30
nivolumab,CD46 expression diff (post minus pre),CD46 expression [1]; Melanoma,−0.04
same,Percent Change in CD46 expression,CD46 expression [1]; Melanoma,−0.7%
same,"CD46 expression, Post-Treatment Biopsy",CD46 expression [1]; Melanoma,5.26
same,"CD46 expression, Pre-Treatment Biopsy",CD46 expression [1]; Melanoma,5.29
same,CD46 expression diff,CD46 expression [2]; [15],−0.06
same,CD46 expression Percentage change,CD46 expression [2]; [16],−1.1%
same,CD46 expression Post,CD46 expression [2]; [17],5.50
same,CD46 expression diff,CD46 expression [2]; [18],−0.02
same,CD46 expression Percentage change,CD46 expression [2]; [19],−0.5%
same,CD46 expression Post,CD46 expression [2]; [20],5.31
same,CD46 expression diff,CD46 expression [2]; [9],−0.09
same,CD46 expression Percentage change,CD46 expression [2]; [10],−1.5%
same,CD46 expression Post,CD46 expression [2]; [11],6.11
panitumumab,CD46 expression diff (post minus pre),CD46 expression [1]; Colorectal Cancer,−0.10
same,Percent Change in CD46 expression,CD46 expression [1]; Colorectal Cancer,−1.4%
same,"CD46 expression, Post-Treatment Biopsy",CD46 expression [1]; Colorectal Cancer,6.62
same,"CD46 expression, Pre-Treatment Biopsy",CD46 expression [1]; Colorectal Cancer,6.71
same,CD46 expression diff,CD46 expression [2]; [12],0.28
same,CD46 expression Percentage change,CD46 expression [2]; [13],4.4%
same,CD46 expression Post,CD46 expression [2]; [14],6.64

# Reference: patent publication US20240058464A1 (Fortis Therapeutics, Inc., priority 2021, published 2024)
